# Patent publication US20230339862A1, “NOVEL DIBENZOACRIDINIUM DERIVATIVES, THEIR PROCESS OF PREPARATION AND THEIR USE FOR TREATING VIRAL INFECTIONS” (priority 2020, published 2023)
# Like-named read-outs stand apart in the source and are kept apart here.
# Assays:
# [1] = tested on: HIV-1; assay: microbe, parasite or virus in culture; assay type: cell-based; conditions: for inhibition of HIV-1 infectivity: 10 µM
# [2] = tested on: HIV-1; conditions: MT4 cells, reported in 2014; read-out: IC50 HIV-1 infectivity; cited from earlier work
# [3] = tested on: HIV-1; conditions: primary infected cells versus MT4 infected cell lines; cited from earlier work
# [4] = tested on: Ebola Gabon virus; assay: microbe, parasite or virus in culture; assay type: cell-based; conditions: Zaire ebolavirus, read-out: Ebola virus inhibition (immunohistochemistry, infectious titer)
# [5] = tested on: Marburg virus; assay: organism not typed; assay type: cell-based; conditions: read-out: Marburg virus inhibition (immunohistochemistry, infectious titer)
smiles,measurement,setting,value
c1ccc(-[n+]2c3ccc4ccccc4c3cc3c4ccccc4ccc32)cc1 [C038],inhibition of HIV-1 infectivity,[1],Complete inhibition
CN(C)c1ccc(Nc2c3ccc(NC(=O)CCN4CCCC4)cc3nc3cc(NC(=O)CCN4CCCC4)ccc23)cc1 [Braco19],IC50,"[1]; Human immunodeficiency virus 1, HeLaP4, read-out: IC50 HIV-1 infectivity",~8 µM
same,IC50,[2],~6 µM
same,antiviral effect in primary infected cells,[3],less efficient with respect to MT4 infected cell lines
COc1ccc2c(ccc3c2cc2c4ccc(OC)cc4ccc2[n+]3-c2ccccc2)c1.[Cl-] [C031],activity on HIV-1 relative to BRACO-19,[1],at least five time more active
same,inhibition of HIV-1 infectivity,[1],Complete inhibition
c1ccc(C[n+]2c3ccc4ccccc4c3cc3c4ccccc4ccc32)cc1 [CO39],inhibition at 5 µM,[4]; 5 μM,~60%
same,inhibition at 20 µM,[4]; 20 μM,~100%
same,inhibition at 5 µM,[5]; 5 μM,30%
same,inhibition at 20 µM,[5]; 20 μM,~100%
COc1ccc2c(ccc3c2cc2c4ccc(OC)cc4ccc2[n+]3-c2ccc([N+](=O)[O-])cc2)c1 [C0370],activity on HIV-1 relative to BRACO-19,[1],at least five time more active
same,selectivity index (SI),[1],17
same,inhibition of HIV-1 infectivity,[1],Complete inhibition
